From patent US6063766A, “Transport protein which effects the transport of cationic xenobiotics and/or pharmaceuticals, DNA sequences encoding it and their use” (priority 1994, dated 2000)
Like-named read-outs stand apart in the source and are kept apart here.

Assays:
OCT1 transport protein [1] = molecular target: T1, OCT1 transport protein (Rattus norvegicus, UniProt Q63089); settings: xenopus oocytes expressing oct1
T1 sequence (Q63089 1-556): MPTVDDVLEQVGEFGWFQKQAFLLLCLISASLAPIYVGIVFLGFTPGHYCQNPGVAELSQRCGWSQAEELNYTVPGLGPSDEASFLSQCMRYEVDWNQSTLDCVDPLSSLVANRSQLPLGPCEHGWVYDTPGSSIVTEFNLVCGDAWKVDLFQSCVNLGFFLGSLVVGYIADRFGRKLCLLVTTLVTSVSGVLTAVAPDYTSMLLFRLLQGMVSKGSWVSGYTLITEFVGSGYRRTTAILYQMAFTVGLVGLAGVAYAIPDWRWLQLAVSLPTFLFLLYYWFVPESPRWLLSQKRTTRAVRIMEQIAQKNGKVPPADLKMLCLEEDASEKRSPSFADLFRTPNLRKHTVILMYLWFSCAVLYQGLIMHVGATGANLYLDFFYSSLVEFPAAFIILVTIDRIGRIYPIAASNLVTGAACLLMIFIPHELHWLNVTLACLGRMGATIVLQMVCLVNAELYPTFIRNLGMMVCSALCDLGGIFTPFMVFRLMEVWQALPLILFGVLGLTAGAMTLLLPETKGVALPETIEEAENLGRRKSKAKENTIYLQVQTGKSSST

OCT1 transport protein [2] = molecular target: T1, OCT1 transport protein; experiment: Inhibition of ^14 C-TEA uptake in Xenopus laevis oocytes injected with OCT1 cRNA
[3] = molecular target: MPP uptake in hepatocytes; settings: cultured hepatocytes; cited from earlier work
[4] = tested on: LLC-PK1 cells, luminal membrane; settings: read-out: Ki for transport of TEA across the luminal membrane, LLC-PK1 cells; cited from earlier work
[5] = tested on: LLC-PK1 cells, basolateral membrane; settings: estimated, read-out: Ki for transport of TEA across the basolateral membrane, LLC-PK1 cells; cited from earlier work
OCT1 transport protein [6] = molecular target: T1, OCT1 transport protein; experiment: cell-based
luminal uptake of TEA = settings: previous investigations, cited from earlier work
[7] = molecular target: basolateral membrane of rat proximal renal tubules; settings: microperfusion experiments; previous investigations; read-out: Ki for basolateral uptake of TEA into rat proximal renal tubules; cited from earlier work
OCT1 transport protein [8] = molecular target: T1, OCT1 transport protein; settings: 8 ng OCT1 cRNA injected
[9] = tested on: neuronal monoamine transport protein in synaptic vesicles; settings: cited from earlier work
[10] = Ki for inhibition of OCT1-elicited ^14 C-TEA uptake

In the case of `C[n+]1ccc(-c2ccccc2)cc1` [1-Methyl-4-phenylpyridinium], the Ki (OCT1 transport protein [1]) is reported as 13 ± 2 µM.

In the case of `CC[n+]1c(C=C2C=C(C)N=C(c3ccccc3)N2C)ccc2ccccc21` [Cyanine 863, 1-ethyl-2([1,4-dimethyl-2-phenyl-6-pyrimidinylidene]methyl)quinoliniumchloride], the Ki (OCT1 transport protein [2]; [10]) is listed as 0.00013 mM and the Ki [3] is listed as 0.1 µM.

For `CCN1C(=Cc2ccc3ccccc3[n+]2CC)C=Cc2ccccc21` [Decynium 22], the Ki [4] is listed as 0.0056 µM, the Ki [5] is listed as greater than 0.1 µM and the Ki (OCT1 transport protein [1]) is listed as 0.36 ± 0.08 µM. The Ki [3] was 0.23 µM and the Ki (OCT1 transport protein [6]) was 0.4 µM.

With `CNCCCN1c2ccccc2CCc2ccccc21` [Desipramine] the “inhibition of OCT1-elicited ^14 C-TEA uptake (in words)” value (OCT1 transport protein [2]) was “inhibited”.

For `CC(C)C(c1ccccc1)C(O)CC[N+]1(C)CCCCC1` (centres unmarked) [Mepiperphenidol], the Ki (OCT1 transport protein [1]) was 5.2 ± 0.3 µM.

In the case of `C[n+]1cccc(C(N)=O)c1` [N^1 -Methylnicotinamide], the “inhibition by NMN of OCT1-induced ^14 C-TEA uptake (in words)” value (OCT1 transport protein [2]) is reported as “able to inhibit”, the “inhibition of OCT1-elicited ^14 C-TEA uptake (in words)” value (OCT1 transport protein [2]) is reported as “inhibited” and the Ki (OCT1 transport protein [2]; [10]) is reported as 1 ± 0.2 mM. For the same compound, the Ki (OCT1 transport protein [2]; Ki for inhibition of OCT1-elicited ^14 C-TEA uptake (mM, text)) was roughly 1 mM, the Ki (luminal uptake of TEA; read-out: Ki for luminal uptake of TEA (printed in nM)) was 8.3e+06 nM and the Ki [7] was 540 µM.

In the case of `COc1cc(C(O)CNC(C)C)ccc1O` (centres unmarked) [O-Methylisoprenaline], the “inhibition of OCT1-elicited ^14 C-TEA uptake (in words)” value (OCT1 transport protein [2]; oocytes injected with OCT1 cRNA) is given as “inhibited”, the Ki (OCT1 transport protein [1]) is given as 43 ± 5 µM and the Ki [3] is given as 78 µM.

For `C=C[C@H]1C[N@@]2CC[C@H]1C[C@H]2[C@H](O)c1ccnc2ccc(OC)cc12` [Quinine], the “inhibition of expressed ^3 H-MPP uptake (in words)” value (OCT1 transport protein [8]) was “inhibited”.

For `COC(=O)[C@H]1[C@H]2C[C@@H]3c4[nH]c5cc(OC)ccc5c4CCN3C[C@H]2C[C@@H](OC(=O)c2cc(OC)c(OC)c(OC)c2)[C@@H]1OC` [Reserpine], the “inhibiting concentration, neuronal monoamine transport protein in synaptic vesicles” value [9] is listed as “sub-nanomolar” and the “effect on OCT1-elicited transport” value (OCT1 transport protein [2]; 5 μM) is listed as “no effect”.

In the case of `C[N+](C)(C)C` [Tetramethylammonium], the “inhibition of OCT1-elicited ^14 C-TEA uptake (in words)” value (OCT1 transport protein [2]) is given as “inhibited”, the Ki (luminal uptake of TEA; read-out: Ki for luminal uptake of TEA) is given as 7e+07 nM and the Ki [7] is given as 1400 µM.

For `CCCCC[N+](CCCCC)(CCCCC)CCCCC` [Tetrapentylammonium], the Ki (OCT1 transport protein [1]) was 0.43 ± 0.09 µM.
